What all share (assay type): cell-based, human
In series [1] the test system is MCF-7 and MDA-MB-231 breast cancer cells. Put plainly: Western immunoblot of Akt and AMPK. To be noted: 0.5 and 1 μM, 24 h. How it is done: (§1) Protein concentrations in the samples were determined using the Lowry method. Samples were prepared containing equal amounts of protein (30 μg/lane) and an appropriate amount of Laemmli buffer (120 mM Tris-HCl, 20% glycerol, 0.4% SDS, and 0.02% bromophenol blue, pH 6.8) containing 100 mM 1,4-dithiothreitol (DTT; Roche, Basel, Switzerland). Samples were denatured at 95 °C for 10 min. The proteins were separated using the SDS-PAGE method described by Laemmli. Proteins were separated on 12% SDS-PAGE gels. […] Transfer conditions were 250 mA, at 4-8 °C, overnight in freshly prepared Towbin buffer. Membranes were blocked with 5% non-fat dried milk (Santa Cruz Biotechnology, Dallas, Texas, USA) in TBS-T (20 mM Tris, 150 mM NaCl, 0.1% Tween-20, pH 7.6) for 1 h at room temperature with gentle shaking. After the blocking step, membranes were washed four times with TBS-T (4 × 15 min) and incubated with primary monoclonal antibodies (against β-actin, p53 (both from Santa Cruz Biotechnology, Dallas, TX, USA), Akt, AMPK (both from BD Transduction Laboratories, San Jose, CA, USA), Bax, caspase 7, and caspase 9 (all from Cell Signaling Technology, Danvers, MA, USA)). Membranes were incubated with primary antibodies overnight at 4 °C. […]
For orientation: A western blot detects proteins with antibodies after separation by electrophoresis.

Series [2] shares this test system. Briefly: Western immunoblot of Bax, caspase 7 and 9, p53. The note with it: 0.5 and 1 μM, 24 h. Here is the method:
as §1

Series [3] shares this test system. Briefly: Autophagy induction, summary statement over cell lines. The note with it: vs EDAG-8; 0.5 and 1 µM, 24 h. How it is done: The effects of the novel selenoesters and a reference compound (cisplatin) at concentrations of 0.5 and 1 µM (after 24 h) on the activation of the autophagy process in MCF-7, MDA-MB-231, and MCF-10A cells were evaluated utilizing the Autophagy Assay kit, Red (ImmunoChemistry Technologies, Bloomington, MN, USA) via flow cytometry (flow cytometer from BD FACSCanto II, BD Biosciences Systems, San Jose, CA, USA). The entire assay was performed according to the manufacturer’s instructions. After drug treatment, unfixed cells were washed and resuspended in PBS at a concentration of 5 × 10^5 cells/mL. Then, 490 µL each of the cell suspension was taken, transferred to test tubes, and 10 µL of Autophagy Probe, Red solution (previously diluted 1:5 in PBS) was added and incubated (30 min, 37 °C, in the dark). After incubation, the cells were washed and resuspended in cellular assay buffer, before finally adding fixative at a ratio of 1:5 (v/v). After this step, the prepared samples were immediately measured using a flow cytometer (BD FACSCanto II; 10,000 events measured), and the percentage of cells with an occurring autophagy process was calculated using the FACSDiva 6.0 software (both from BD Biosciences Systems, San Jose, CA, USA). The equipment calibration was performed using the BD Cytometer Setup and Tracking Beads (BD Biosciences, San Diego, CA, USA).

For series [4], the system named is MCF-10A normal breast epithelial cells. Put plainly: Apoptosis induction, annexin V-FITC/PI flow cytometry, MCF-10A. The note with it: especially at 1 µM, 24 h. How it is done:
The FITC Annexin V Apoptosis Detection Kit II (BD Pharmingen, San Diego, CA, USA) and a flow cytometer (BD FACSCanto II, BD Biosciences Systems, San Jose, CA, USA) were used in this evaluation. The assay was performed according to the manufacturer’s instructions. Flow cytometer calibration was performed by preparing two controls—a positive and a negative control. […] The negative control was cells that were not treated with any of the proapoptotic agents. First, in the cells treated with the tested compounds as well as the controls, the medium was removed, and the cells were washed twice with cold PBS. Subsequently, the cells were resuspended in the binding buffer included in the kit at a concentration of 1 × 10^6 cells/mL. From each sample, 100 µL of cell suspension was taken and transferred to test tubes, to which 5 µL each of FITC annexin V and propidium iodide (PI) were then added. The contents of the test tubes were gently vortexed and incubated for 15 min at room temperature, protected from light. After the required time, the contents of the test tubes were made up to 500 µL with binding buffer and immediately analyzed in a flow cytometer (10,000 events measured). After the flow cytometer readout, the results were analyzed using the FACSDiva 6.0 software (BD Biosciences Systems, San Jose, CA, USA). […]
(In general: In flow cytometry, cells or beads pass a laser one at a time.)

On to `N.N.[Cl][Pt][Cl]` [Cisplatin, reference compound], for which the “expression of Akt and AMPK (Western blot, in words)” value in series [1] was “did not significantly affect”.
For `CC(=O)C[Se]C(=O)c1ccc(C(=O)[Se]CC(C)=O)cc1` [EDAG-1, Se,Se-bis(2-oxopropyl) benzene-1,4-bis(carboselenoate)], the “expression of Bax, caspase 7 and 9, p53 (Western blot, in words)” value in series [2] was “slightly weaker effect”. Besides, the “fold weaker pro-autophagic activity compared to the most active derivative” value in series [3] is listed as “approximately 2 fold”.
On to `CC(=O)C[Se]C(=O)c1cc(C(=O)[Se]CC(C)=O)cc(C(=O)[Se]CC(C)=O)c1` [EDAG-8, Se,Se,Se-tris-(2-oxopropyl) benzene-1,3,5-tris-(carboxyselenoate)], for which the “necrotic cells (in words)” value in series [4] was “increase in the number of necrotic cells”. The “expression of Akt and AMPK (Western blot, in words)” value in series [1] is given as “most active”. The “expression of Bax, caspase 7 and 9, p53 (Western blot, in words)” value in series [2] is “most active”.

These data come from PMC11277004, “Di- and Triselenoesters—Promising Drug Candidates for the Future Therapy of Triple-Negative Breast Cancer” (International Journal of Molecular Sciences, 2024).
